Results: ChEMBL document CHEMBL1201862, “PubChem BioAssay data set” (2004)
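A five-concentration, 48-hour dose response in 96-well plates underlies each endpoint, interpolated linearly between surrounding concentrations. GI50 marks 50% less growth.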 The source made the active and inactive calls. Cut-off read from the data, not from the text of the source: active = GI50 up to about 1.1 µM and inactive = higher.

Legend:
Assay in all cases: inhibition of tumour cell growth, NCI panel, 48 h
[1] = tested on: HCT-116
[2] = tested on: HT-29
[3] = tested on: SK-MEL-28
[4] = tested on: M14
[5] = tested on: LOX IMVI
[6] = tested on: TK-10
[7] = tested on: SW-620
[8] = tested on: SNB-78
[9] = tested on: CCRF-CEM
[10] = tested on: UACC-257
[11] = tested on: SF-268
[12] = tested on: OVCAR-3
[13] = tested on: K562
[14] = tested on: SN12C
[15] = tested on: U-251
[16] = tested on: SF-539
[17] = tested on: IGROV-1
[18] = tested on: HCT-15

Row | SMILES | GI50 [1] | GI50 [2] | GI50 [3] | GI50 [4] | GI50 [5] | GI50 [6] | GI50 [7] | GI50 [8] | GI50 [9] | GI50 [10] | GI50 [11] | GI50 [12] | GI50 [13] | GI50 [14] | GI50 [15] | GI50 [16] | GI50 [17] | GI50 [18]
1 | Cc1nc2nnc(C)n2c2c1C(=O)Nc1ccccc1N2 | > 100 µM (inactive) | > 100 µM (inactive) | > 100 µM (inactive) | > 100 µM (inactive) | > 100 µM (inactive) | > 100 µM (inactive) | > 100 µM (inactive) | > 100 µM (inactive) | > 100 µM (inactive) | > 100 µM (inactive) | > 100 µM (inactive) | > 100 µM (inactive) | > 100 µM (inactive) | > 100 µM (inactive) | > 100 µM (inactive) | > 100 µM (inactive) | > 100 µM (inactive) | 
2 | CCOC(=O)[C@H]1Nc2ccc(OC)cc2C2c3ccccc3CC21 (stereo not given in full) | > 100 µM (inactive) | > 100 µM (inactive) | > 100 µM (inactive) | > 100 µM (inactive) | > 100 µM (inactive) | > 100 µM (inactive) | > 100 µM (inactive) | > 100 µM (inactive) |  | > 100 µM (inactive) | > 100 µM (inactive) | > 100 µM (inactive) | > 100 µM (inactive) | > 100 µM (inactive) | > 100 µM (inactive) | > 100 µM (inactive) | > 100 µM (inactive) | > 100 µM
3 | OCCN(CCO)c1ncnc2c1sc(=S)n2-c1ccccc1 | > 100 µM (inactive) | > 100 µM (inactive) | > 100 µM (inactive) | > 100 µM (inactive) | > 100 µM (inactive) | > 100 µM (inactive) | > 100 µM (inactive) | > 100 µM (inactive) | > 100 µM (inactive) | > 100 µM (inactive) | > 100 µM (inactive) | > 100 µM (inactive) | > 100 µM (inactive) | > 100 µM (inactive) | > 100 µM (inactive) | > 100 µM (inactive) | > 100 µM (inactive) | > 100 µM
4 | CCOC(=O)C12CCSC1C1(C#N)C(C#N)=CC2(N=P(c2ccccc2)(c2ccccc2)c2ccccc2)n2c(=O)n(-c3ccccc3)c(=O)n21 (stereo not given) | 36.9 µM (inactive) | 39.8 µM (inactive) | 27.5 µM (inactive) | 42.2 µM (inactive) | 39.9 µM (inactive) | > 100 µM (inactive) | 64 µM (inactive) | 68.5 µM (inactive) | 34.5 µM (inactive) | 33.6 µM (inactive) | 35.1 µM (inactive) | 25.4 µM (inactive) | 33.9 µM (inactive) | 62.2 µM (inactive) | 42.4 µM (inactive) | 73.6 µM (inactive) | 59.8 µM (inactive) | 34.8 µM
5 | OC1CC1Sc1ccccc1 (stereo not given) | 22.5 µM (inactive) | 27.2 µM (inactive) | 22.1 µM (inactive) | 36.6 µM (inactive) | 28 µM (inactive) | 59.7 µM (inactive) | 25.8 µM (inactive) | 26.9 µM (inactive) | 15.1 µM (inactive) | 52.5 µM (inactive) | 18.6 µM (inactive) | 25.4 µM (inactive) | 33.9 µM (inactive) | 24 µM (inactive) | 31.6 µM (inactive) | 22 µM (inactive) | 23.7 µM (inactive) | 36.7 µM
6 | Cc1cc2c(c(C(N)=O)c1C)-c1cc(Cl)cc(Cl)c1C2=O | > 100 µM (inactive) | > 100 µM (inactive) | > 100 µM (inactive) | > 100 µM (inactive) | 93.3 µM (inactive) | > 100 µM (inactive) |  | 41.3 µM (inactive) | > 100 µM (inactive) | > 100 µM (inactive) | 97.7 µM (inactive) | > 100 µM (inactive) | > 100 µM (inactive) | > 100 µM (inactive) | 30.7 µM (inactive) | 90.2 µM (inactive) | > 100 µM (inactive) | > 100 µM
7 | [N-]=[N+]=NC12CC3C4CC5CC3C(C1)C(C5)C4C2 | > 100 µM (inactive) | > 100 µM (inactive) | > 100 µM (inactive) | > 100 µM (inactive) | > 100 µM (inactive) | > 100 µM (inactive) | > 100 µM (inactive) | > 100 µM (inactive) | > 100 µM (inactive) | > 100 µM (inactive) | > 100 µM (inactive) | > 100 µM (inactive) | > 100 µM (inactive) | > 100 µM (inactive) | > 100 µM (inactive) | > 100 µM (inactive) | > 100 µM (inactive) | 
8 | CCN(CCCl)CCCCCNc1c2ccccc2nc2ccc(OC)cc12 | 0.221 µM (active) | 0.259 µM (active) | 2.72 µM (inactive) | 2.15 µM (inactive) | 0.178 µM (active) | 7.66 µM (inactive) | 0.154 µM (active) | 0.736 µM (active) | 0.0857 µM (active) | 3.22 µM (inactive) | 0.597 µM (active) | 1.83 µM (inactive) | 0.149 µM (active) | 0.232 µM (active) | 0.603 µM (active) | 1.04 µM (active) | 0.578 µM (active) | 1.3 µM
